In brackets after ≈: the same amount, converted by molar mass.
Tests used:
Format in all cases: functional
[1] = system: Staphylococcus aureus; experiment: Disruption of preformed biofilm in Staphylococcus aureus ATCC29213 assessed as residual preformed biofilm at 6.25 ug/mL incubated for 24 hrs by crystal violet staining based analysis relative to control; conditions: dose 6.25 µg/ml
[2] = system: Staphylococcus aureus; experiment: Antibiofilm activity against Staphylococcus aureus ATCC29213 assessed as inhibition of biofilm formation at 0.39 ug/mL incubated for 24 hrs by crystal violet staining based analysis relative to control
[3] = system: Staphylococcus aureus; experiment: Disruption of preformed biofilm in Staphylococcus aureus ATCC29213 assessed as residual preformed biofilm at 0.39 ug/mL incubated for 24 hrs by crystal violet staining based analysis relative to control; conditions: dose 0.39 µg/ml
[4] = system: Staphylococcus aureus; experiment: Antimicrobial activity against methicillin-resistant Staphylococcus aureus NCTC10442 assessed as bacterial growth inhibition incubated for 24 hrs by Muller Hinton broth based dilution assay
[5] = system: Staphylococcus aureus; experiment: Antimicrobial activity against Staphylococcus aureus ATCC29213 assessed as bacterial growth inhibition incubated for 24 hrs by Muller Hinton broth based dilution assay
[6] = system: Staphylococcus aureus; experiment: Antibiofilm activity against Staphylococcus aureus ATCC29213 assessed as inhibition of biofilm formation at 6.25 ug/mL incubated for 24 hrs by crystal violet staining based analysis relative to control
[7] = system: Escherichia coli; experiment: Antimicrobial activity against Escherichia coli ATCC25922 assessed as bacterial growth inhibition incubated for 24 hrs by Muller Hinton broth based dilution assay
[8] = system: Staphylococcus aureus; experiment: Antimicrobial activity against methicillin-resistant Staphylococcus aureus N315 assessed as bacterial growth inhibition incubated for 24 hrs by Muller Hinton broth based dilution assay
[9] = system: Staphylococcus aureus; experiment: Disruption of preformed biofilm in Staphylococcus aureus ATCC29213 assessed as residual preformed biofilm at 12.5 ug/mL incubated for 24 hrs by crystal violet staining based analysis relative to control; conditions: dose 12.5 µg/ml
[10] = system: Staphylococcus aureus; experiment: Disruption of preformed biofilm in Staphylococcus aureus ATCC29213 assessed as residual preformed biofilm at 0.78 ug/mL incubated for 24 hrs by crystal violet staining based analysis relative to control; conditions: dose 0.78 µg/ml
[11] = system: Staphylococcus aureus; experiment: Disruption of preformed biofilm in Staphylococcus aureus ATCC29213 assessed as residual preformed biofilm at 3.125 ug/mL incubated for 24 hrs by crystal violet staining based analysis relative to control; conditions: dose 3.125 µg/ml
[12] = system: Staphylococcus aureus; experiment: Antibiofilm activity against Staphylococcus aureus ATCC29213 assessed as inhibition of biofilm formation at 0.78 ug/mL incubated for 24 hrs by crystal violet staining based analysis relative to control
[13] = system: Pseudomonas aeruginosa; experiment: In vivo antibacterial activity against Pseudomonas aeruginosa ATCC9027 infected in keratitis C57BL/6 mouse model assessed as log reduction in bacterial load at 0.3 % administered topically 4 times per day for 3 days; conditions: time 3 day

For `CN[C@H](CC(C)C)C(=O)N[C@H]1C(=O)N[C@@H](CC(N)=O)C(=O)N[C@H]2C(=O)N[C@H]3C(=O)N[C@H](C(=O)N[C@H](C(=O)O)c4cc(O)cc(O)c4-c4cc3ccc4O)[C@H](O)c3ccc(c(Cl)c3)Oc3cc2cc(c3O[C@@H]2O[C@H](CO)[C@@H](O)[C@H](O)[C@H]2O[C@H]2C[C@](C)(N)[C@H](O)[C@H](C)O2)Oc2ccc(cc2Cl)[C@H]1O` [VANCOMYCIN], the Activity [1] was 10.69%, the inhibition at 0.39 µg/mL [2] was 3.73% and the Activity [3] was 98.16%. The MIC [4] was 1.56 µg/mL (≈ 1.08 µM), the MIC [5] was 0.78 µg/mL (≈ 0.538 µM) and the inhibition at 6.25 µg/mL [6] was 99.6%. For the same compound, the MIC [7] was greater than 50 µg/mL, the MIC [8] was 1.56 µg/mL (≈ 1.08 µM) and the Activity [9] was -0.81%. The Activity [10] was 91.12%, the Activity [11] was 49.44% and the inhibition at 0.78 µg/mL [12] was 30.3%.

For `COc1c(N2CCNC(C)C2)c(F)cc2c(=O)c(C(=O)O)cn(C3CC3)c12` (stereo not drawn) [GATIFLOXACIN], the “log(activity)” value [13] was 3.7.
